Data: patent publication US12358896B2, “LRRK2 inhibitors and methods of making and using thereof” (DENALI THERAPEUTICS INC., priority 2019, dated 2025)

Tests used:
[1] = target: LRRK2 G2019S enzyme (Homo sapiens, UniProt Q5S007, G2019S); experiment: LRRK2 G2019S TR-FRET biochemical assay (Biological Example 1); settings: 134 μM ATP, 5 nM LRRK2, LRRKtide substrate
Procedure: • LRRK2 G2019S enzyme • Substrate (LRRKtide) • ATP • TR-FRET dilution buffer • pLRRKtide antibody • 384-well assay plate • DMSO Enzyme Reaction Conditions • 50 mM Tris pH 7.5, 10 mM MgCl2, 1 mM EGTA, 0.01% Brij-35, 2 mM DTT • 5 nM LRRK2 • 134 μM ATP • 60 minute reaction time • 23° C. reaction temperature • 10 μL total reaction volume Detection Reaction Conditions • 1×TR-FRET dilution buffer • 10 mM EDTA • 2 nM antibody • 23° C. reaction temperature • 10 μL total reaction volume
Compounds are prepared by initially diluting to 1 mM with DMSO. 35 μL of reference compound solution, 35 μL of test compound solution, and 35 μL HPE are successively added to the source plate (384-well assay plate, Labcyte). The plates are centrifuged at 2500 rpm for 1 minute and sealed in foil. POD is used to perform a 3.162 fold serial dilution and 100 nL of reference compound solution, test compound solution, HPE and ZPE are transferred to assay plates. The assay plate is centrifuged at 2500 rpm for 1 minute, and sealed with foil.
To perform the enzyme reaction, 5 μL of LRRKtide substrate and kinase mixture in assay buffer is added to all wells of the assay plate. The plate is centrifuged to concentrate the mixture at the bottom of the wells. The assay plate is incubated at 23° C. for 20 minutes. Following incubation, 5 μL of 2×ATP in assay buffer is added to each well, and plates are centrifuged to concentrate the mixture at the bottom of the wells. The plate is incubated at 23° C. for 60 minutes.
To perform the detection of the reaction, EDTA completely mixed in TR-FRET dilution buffer is added to antibody reagent. 10 μL of detection reagent is added to all wells of each well of the assay plate and the plate is centrifuged to concentrate the mixture at the bottom of the wells. The plate is then incubated at 23° C. for 60 minutes. Plates are read on Perkin Elmer Envision 2104 instrument in TR-FRET mode using a 340 nm excitation filter, 520 nm fluorescence emission filter, and 490 or 495 nm terbium emission filter.

[2] = target: T1, FLAG-tagged human LRRK2 with G2019S mutation (Homo sapiens, UniProt Q5S007, G2019S); experiment: Inhibition of pSer935 in HEK293 cells with expressed G2019S LRRK2 (Biological Example 4); type: cell-based; settings: transfected 293T cells, 90 minutes compound treatment, MSD readout; read-out: HEK293T LRRK2 G2019S pS935
T1 construct: expressed in transfected cells; host or cells: HEK293 / 293T cells, transient transfection with pCMV-FLAG-G2019S
T1 sequence (Q5S007 whole entry G2019S): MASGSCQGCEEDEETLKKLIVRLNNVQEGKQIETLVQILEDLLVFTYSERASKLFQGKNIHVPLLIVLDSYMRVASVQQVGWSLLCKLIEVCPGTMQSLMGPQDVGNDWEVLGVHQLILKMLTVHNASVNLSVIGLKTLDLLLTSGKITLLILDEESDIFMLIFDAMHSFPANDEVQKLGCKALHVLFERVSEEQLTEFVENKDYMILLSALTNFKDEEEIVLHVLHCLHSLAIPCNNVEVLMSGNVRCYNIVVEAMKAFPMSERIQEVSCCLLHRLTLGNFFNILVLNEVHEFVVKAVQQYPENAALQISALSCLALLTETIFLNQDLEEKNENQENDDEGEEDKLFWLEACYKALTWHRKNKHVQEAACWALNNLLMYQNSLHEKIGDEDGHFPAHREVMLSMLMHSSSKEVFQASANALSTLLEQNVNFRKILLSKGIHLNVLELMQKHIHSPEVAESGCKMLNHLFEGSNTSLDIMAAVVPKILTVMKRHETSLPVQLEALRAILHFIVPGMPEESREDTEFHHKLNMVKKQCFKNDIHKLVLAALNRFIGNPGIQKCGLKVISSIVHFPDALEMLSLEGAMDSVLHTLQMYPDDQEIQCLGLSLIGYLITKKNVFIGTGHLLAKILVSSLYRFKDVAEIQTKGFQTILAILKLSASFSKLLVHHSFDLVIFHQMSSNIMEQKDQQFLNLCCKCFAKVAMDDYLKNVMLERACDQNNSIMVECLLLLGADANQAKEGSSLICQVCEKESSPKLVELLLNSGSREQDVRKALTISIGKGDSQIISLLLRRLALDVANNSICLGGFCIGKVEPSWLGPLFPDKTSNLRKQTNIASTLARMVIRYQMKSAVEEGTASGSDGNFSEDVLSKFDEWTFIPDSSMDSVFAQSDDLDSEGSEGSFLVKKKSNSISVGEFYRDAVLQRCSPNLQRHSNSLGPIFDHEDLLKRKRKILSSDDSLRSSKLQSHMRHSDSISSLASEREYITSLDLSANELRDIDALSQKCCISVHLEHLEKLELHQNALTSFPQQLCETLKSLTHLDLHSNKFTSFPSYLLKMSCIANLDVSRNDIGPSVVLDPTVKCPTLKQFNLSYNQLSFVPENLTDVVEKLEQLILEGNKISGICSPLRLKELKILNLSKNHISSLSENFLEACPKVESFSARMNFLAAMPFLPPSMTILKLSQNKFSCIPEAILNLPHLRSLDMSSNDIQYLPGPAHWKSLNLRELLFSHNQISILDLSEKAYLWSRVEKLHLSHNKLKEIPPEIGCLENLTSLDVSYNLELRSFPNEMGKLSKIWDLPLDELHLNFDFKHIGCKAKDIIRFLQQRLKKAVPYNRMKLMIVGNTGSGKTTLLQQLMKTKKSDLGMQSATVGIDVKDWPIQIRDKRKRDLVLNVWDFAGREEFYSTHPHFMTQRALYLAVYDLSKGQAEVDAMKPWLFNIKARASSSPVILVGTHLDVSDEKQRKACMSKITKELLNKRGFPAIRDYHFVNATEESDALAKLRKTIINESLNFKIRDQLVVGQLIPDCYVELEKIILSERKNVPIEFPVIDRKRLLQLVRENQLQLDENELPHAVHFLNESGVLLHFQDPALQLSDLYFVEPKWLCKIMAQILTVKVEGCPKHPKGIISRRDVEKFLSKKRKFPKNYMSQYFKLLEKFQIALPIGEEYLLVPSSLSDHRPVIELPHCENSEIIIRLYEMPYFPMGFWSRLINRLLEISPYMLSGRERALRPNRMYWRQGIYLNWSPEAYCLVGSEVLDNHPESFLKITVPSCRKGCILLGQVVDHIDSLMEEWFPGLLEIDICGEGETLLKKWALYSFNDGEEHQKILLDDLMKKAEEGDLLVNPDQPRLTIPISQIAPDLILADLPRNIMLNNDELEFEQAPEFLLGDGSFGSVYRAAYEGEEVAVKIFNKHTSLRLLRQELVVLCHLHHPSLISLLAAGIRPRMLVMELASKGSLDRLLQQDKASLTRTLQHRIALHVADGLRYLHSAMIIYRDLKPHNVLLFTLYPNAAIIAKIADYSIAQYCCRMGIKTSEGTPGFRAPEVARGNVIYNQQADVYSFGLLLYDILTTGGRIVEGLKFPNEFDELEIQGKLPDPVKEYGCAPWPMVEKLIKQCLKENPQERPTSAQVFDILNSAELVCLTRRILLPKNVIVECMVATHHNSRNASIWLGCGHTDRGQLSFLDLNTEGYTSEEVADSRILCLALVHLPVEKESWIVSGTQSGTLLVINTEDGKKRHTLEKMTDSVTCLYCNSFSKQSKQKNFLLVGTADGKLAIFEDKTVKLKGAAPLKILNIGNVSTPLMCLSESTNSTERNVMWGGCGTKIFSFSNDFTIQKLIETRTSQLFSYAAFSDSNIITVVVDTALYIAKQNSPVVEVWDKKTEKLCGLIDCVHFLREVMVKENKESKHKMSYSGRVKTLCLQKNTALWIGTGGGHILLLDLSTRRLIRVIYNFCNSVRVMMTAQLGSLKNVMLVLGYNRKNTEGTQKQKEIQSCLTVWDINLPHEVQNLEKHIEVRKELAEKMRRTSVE
Procedure: In this assay, inhibition of phosphorylation of LRRK2 at residue serine 935 (pS935) by test compound was determined in HEK293 cells.
HEK293 cells were first transiently transfected with a plasmid harboring FLAG-tagged human LRRK2 cDNA with G2019S mutation (p.G2019S) under the control of CMV promoter for robust overexpression. The levels of phosphorylated Ser935 in G2019S expressing cells with or without compound treatment were measured by MSD using an anti-FLAG capture antibody and a phosho-specific anti-LRRK2 pS935 monoclonal detection antibody. The IC50 was determined by fitting a 10-point dose response data in duplicate with four parameter non-linear regression curve.
(Day 1) 293T cell seeding: 293T cells were seeded (1.4×10^6/well) into each well of a 6-well plate. After two days in culture, the cell number can grow into 5×10^6/well, so N+1 wells were seeded (enough for N 96 well assay plates).
(Day 2) 293T cell transfection: 5 μL of pCMV-FLAG-G2019S or pCMV-FLAG-WT LRRK2 (0.5 μg/μL) was added into 145 μL of DMEM medium, and mixed thoroughly by pipette up and down several times. 15 μL of SuperFect Transfection Reagent was added into samples, mixed thoroughly by pipetting up and down several times, and allowed to equilibrate at room temperature for 5-10 minutes. 0.5 mL of pre-warmed cell culture medium was added into samples, and mixed thoroughly by pipetting up and down several times. 650 μL of the mixture was added dropwise into each well of the 6 well plate, the plate was swirled to mix thoroughly, and incubated in a 37° C. incubator with a humidified atmosphere of 5% CO2 for 20-24 hours.
(Day 3) 293T cells seed into 96 well plates: Cells were harvested and resuspended in cell culture medium at 0.96×10^6 cells/mL density. 50 μL/well cells were plated onto 96-well cell culture plate (48,000 cells/well), and the plates were incubated in a 37° C. incubator with a humidified atmosphere of 5% CO2 for 20-24 hours.
(Day 4) Inhibitor Treatment and Cell Lysis: The compound destination plates were thawed at room temperature and centrifuged at 2000 rpm. 55 μL cell culture medium was added into compound destination plate, and the plate was warmed at 37° C.
50 μL of cell culture medium containing compounds was transferred into cell culture plate. Plates were incubated in a 37° C. incubator with a humidified atmosphere of 5% CO2 for 90 minutes, after which all of compound-containing medium was completely aspirated manually with 300 μL pipette. 100 μL/well of Lysis Buffer was added and the plates sealed, shaken at 4° C. for 30 minutes, and stored at −20° C. until usage.
(Day 5) MSD procedure: 2 μg/25 μL/well of FLAG antibody diluted in PBS was added into the MSD plate, incubated for two hours at room temperature or overnight at 4° C. (in Day 4). 50 μL (3.9 μg/μL) of FLAG antibody plus 2.5 mL PBS, per 96 well plate, or 50 μL (3.9 μg/μL) anti-FLAG antibody plus 5 mL PBS per 384 well plate. The plates were centrifuged at 1000 rpm for 10 seconds and shaken with a plate shaker for 10 seconds.
Anti-FLAG antibody was discarded, and the wells were washed using multidrop, low speed, two times with 300 μL/well of wash buffer for a 96 well plate or three times with 70 μL/well of wash buffer for a 384 well plate. 50 μL/well of block buffer for a 96 well plate, or 25 μL/well of block buffer for a 384 well plate, was added and the plates were incubated for two hours at room temperature. The Block buffer was then discarded and the wells washed two times using multidrop, low speed, with 300 μL/well of wash buffer for a 96 well plate, or three times with 70 μL/well of wash buffer for a 384 well plate.
25 μL of cell lysate was transferred into a 96 well MSD plate, or 12.5 μL of cell lysate into 384 well MSD plate, and the plates were incubated for one hour at room temperature.
Note: The cell lysate should be thawed one hour prior to this step, the plate centrifuged at 1000 rpm for one minute, shaken for 30 seconds, and then unsealed for lysate transfer. […]

Chain of LRRK2 G2019S enzyme (Q5S007 whole entry G2019S): as above

An IC50 [1] of 1.47 nM and an IC50 [2] of 1.83 nM were found for `CCNc1nc(Nc2cn([C@H]3C[C@H]3C(N)=O)nc2C2CC2)ncc1C(F)(F)F` (single isomer, unassigned) [Example 7, (1,2-cis)-2-(3-cyclopropyl-4-((4-(ethylamino)-5-(trifluoromethyl)pyrimidin-2-yl)amino)-1H-pyrazol-1-yl)cyclopropanecarboxamide] in this work.
An IC50 [1] of 1.41 nM and an IC50 [2] of 11.8 nM were found for `CCNc1nc(Nc2cc([C@H]3C[C@H]3C(N)=O)nn2C2CC2)ncc1C(F)(F)F` [Comparative Example A, reference compound] in this work.
